Laboratory results as given in patent publication US10040781B2, “Tank-binding kinase inhibitor compounds” (Gilead Sciences, Inc., priority 2014, dated 2018).

Key:
[1] = target: hJAK2 (Homo sapiens (Human), UniProt O60674); assay: hJAK2 LANCE TR-FRET enzymatic assay; type: biochemical; conditions: read-out: JAK2 IC50
[2] = target: TBK1 (Homo sapiens (Human), UniProt Q9UHD2); assay: TBK1 TR-FRET enzymatic assay;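 note: phosphorylation of a biotinylated Ser/Thr peptide by purified full-length recombinant TBK1, read by TR-FRET after 240 min at 25 °C, IC50 is the geometric mean of at least four runs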
[3] = target: IKKε (Homo sapiens (Human), UniProt Q14164); assay: IKKε TR-FRET enzymatic assay; type: biochemical; conditions: read-out: IKKe IC50
Chain of IKKε (Q14164 whole entry): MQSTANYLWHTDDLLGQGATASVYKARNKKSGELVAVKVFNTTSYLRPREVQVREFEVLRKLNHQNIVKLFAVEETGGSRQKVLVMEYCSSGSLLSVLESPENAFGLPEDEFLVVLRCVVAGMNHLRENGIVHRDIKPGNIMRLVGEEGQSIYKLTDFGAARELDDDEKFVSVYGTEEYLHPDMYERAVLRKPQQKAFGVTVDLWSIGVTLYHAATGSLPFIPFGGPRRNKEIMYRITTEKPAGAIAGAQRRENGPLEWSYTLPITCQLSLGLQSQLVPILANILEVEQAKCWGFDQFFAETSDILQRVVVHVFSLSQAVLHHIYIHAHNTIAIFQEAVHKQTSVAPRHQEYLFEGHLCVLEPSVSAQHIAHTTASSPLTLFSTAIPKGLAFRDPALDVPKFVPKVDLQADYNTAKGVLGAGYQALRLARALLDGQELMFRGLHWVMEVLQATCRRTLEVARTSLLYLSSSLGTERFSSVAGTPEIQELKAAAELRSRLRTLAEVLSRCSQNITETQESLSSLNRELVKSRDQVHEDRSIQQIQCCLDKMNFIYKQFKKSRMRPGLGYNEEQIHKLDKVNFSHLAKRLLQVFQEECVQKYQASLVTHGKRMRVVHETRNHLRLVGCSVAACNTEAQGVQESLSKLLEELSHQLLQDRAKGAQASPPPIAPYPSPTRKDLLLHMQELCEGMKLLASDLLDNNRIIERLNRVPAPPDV

Chain of hJAK2 (O60674 whole entry): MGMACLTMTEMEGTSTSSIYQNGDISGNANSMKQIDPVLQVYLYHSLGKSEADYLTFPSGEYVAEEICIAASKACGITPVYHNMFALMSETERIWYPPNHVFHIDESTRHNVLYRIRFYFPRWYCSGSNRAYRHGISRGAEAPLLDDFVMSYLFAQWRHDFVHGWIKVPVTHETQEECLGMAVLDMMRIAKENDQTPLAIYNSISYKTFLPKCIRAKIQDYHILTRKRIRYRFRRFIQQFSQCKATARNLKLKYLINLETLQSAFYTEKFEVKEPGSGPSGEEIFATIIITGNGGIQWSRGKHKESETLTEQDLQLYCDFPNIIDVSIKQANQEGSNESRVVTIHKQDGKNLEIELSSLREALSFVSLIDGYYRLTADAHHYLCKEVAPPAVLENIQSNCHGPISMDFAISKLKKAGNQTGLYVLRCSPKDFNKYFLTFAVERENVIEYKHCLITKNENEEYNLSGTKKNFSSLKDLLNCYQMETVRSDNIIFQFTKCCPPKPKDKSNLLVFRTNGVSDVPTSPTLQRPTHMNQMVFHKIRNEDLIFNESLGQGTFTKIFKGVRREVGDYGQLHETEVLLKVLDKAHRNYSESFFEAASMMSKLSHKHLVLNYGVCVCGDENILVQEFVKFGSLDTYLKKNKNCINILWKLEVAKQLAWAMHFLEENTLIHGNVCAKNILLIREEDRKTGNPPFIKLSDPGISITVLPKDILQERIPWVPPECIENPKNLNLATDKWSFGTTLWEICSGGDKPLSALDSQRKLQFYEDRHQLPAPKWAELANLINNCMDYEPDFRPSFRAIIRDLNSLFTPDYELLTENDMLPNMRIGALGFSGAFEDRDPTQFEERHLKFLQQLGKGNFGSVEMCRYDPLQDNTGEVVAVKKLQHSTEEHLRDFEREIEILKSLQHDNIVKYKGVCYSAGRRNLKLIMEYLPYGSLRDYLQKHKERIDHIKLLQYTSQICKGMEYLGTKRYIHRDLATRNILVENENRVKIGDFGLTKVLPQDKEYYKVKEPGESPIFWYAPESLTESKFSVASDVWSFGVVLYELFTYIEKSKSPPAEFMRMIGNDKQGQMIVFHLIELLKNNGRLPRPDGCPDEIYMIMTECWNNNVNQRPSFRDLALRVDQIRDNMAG
Chain of TBK1 (Q9UHD2 whole entry): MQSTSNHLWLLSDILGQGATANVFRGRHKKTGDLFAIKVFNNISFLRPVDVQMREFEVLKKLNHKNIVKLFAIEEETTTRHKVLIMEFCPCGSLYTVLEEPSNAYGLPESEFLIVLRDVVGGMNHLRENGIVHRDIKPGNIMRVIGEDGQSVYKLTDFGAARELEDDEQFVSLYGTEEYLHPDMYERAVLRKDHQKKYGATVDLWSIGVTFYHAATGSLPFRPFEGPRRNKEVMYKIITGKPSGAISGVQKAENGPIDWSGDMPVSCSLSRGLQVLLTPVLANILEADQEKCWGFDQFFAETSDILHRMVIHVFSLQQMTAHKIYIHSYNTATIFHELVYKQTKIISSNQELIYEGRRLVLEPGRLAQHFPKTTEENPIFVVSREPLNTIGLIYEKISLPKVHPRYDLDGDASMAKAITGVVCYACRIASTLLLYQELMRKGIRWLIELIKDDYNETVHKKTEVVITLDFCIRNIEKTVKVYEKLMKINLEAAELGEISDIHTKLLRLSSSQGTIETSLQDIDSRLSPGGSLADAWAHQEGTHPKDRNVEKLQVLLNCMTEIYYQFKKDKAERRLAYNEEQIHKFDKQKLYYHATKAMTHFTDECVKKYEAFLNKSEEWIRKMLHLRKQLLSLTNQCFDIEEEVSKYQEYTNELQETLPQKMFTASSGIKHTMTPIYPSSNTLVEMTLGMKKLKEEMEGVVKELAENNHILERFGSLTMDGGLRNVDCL

SMILES | IC50 [1] [nM] | IC50 [2] [nM] | IC50 [3] [nM]
N#Cc1cc(-c2ncnc(Nc3ccc(N4CCN(C5COC5)CC4)cc3)n2)ccc1O[C@H]1CCN(C(=O)c2cnn[nH]2)C[C@H]1F [Example 143, 2-(((3R,4S)-3-fluoro-1-(1H-1,2,3-triazole-5-carbonyl)piperidin-4-yl)oxy)-5-(4-((4-(4-(oxetan-3-yl)piperazin-1-yl)phenyl)amino)-1,3,5-triazin-2-yl)benzonitrile] | 84 | 2 | 1
N#Cc1cc(-c2ncnc(Nc3ccc(N4CCN(C5COC5)CC4)cc3)n2)ccc1O[C@H]1CCN(C(=O)c2nnc[nH]2)C[C@H]1F [Example 144, 2-(((3R,4S)-3-fluoro-1-(4H-1,2,4-triazole-3-carbonyl)piperidin-4-yl)oxy)-5-(4-((4-(4-(oxetan-3-yl)piperazin-1-yl)phenyl)amino)-1,3,5-triazin-2-yl)benzonitrile] | 104 | 2 | 1
N#Cc1cc(-c2ncnc(Nc3ccc(N4CCN(C5COC5)CC4)cc3)n2)ccc1O[C@H]1CCN(C(=O)c2ccn[nH]2)C[C@H]1F [Example 145, 2-(((3R,4S)-3-fluoro-1-(1H-pyrazole-5-carbonyl)piperidin-4-yl)oxy)-5-(4-((4-(4-(oxetan-3-yl)piperazin-1-yl)phenyl)amino)-1,3,5-triazin-2-yl)benzonitrile] | 219 | 2 | 1
N#Cc1cc(-c2ncnc(Nc3ccc(N4CCN(C5COC5)CC4)cc3)n2)ccc1O[C@H]1CCN(C(=O)c2cnc[nH]2)C[C@H]1F [Example 146, 2-(((3R,4S)-3-fluoro-1-(1H-imidazole-5-carbonyl)piperidin-4-yl)oxy)-5-(4-((4-(4-(oxetan-3-yl)piperazin-1-yl)phenyl)amino)-1,3,5-triazin-2-yl)benzonitrile] | 156 | 3 | 1
Cn1cc(C(=O)N2CC[C@H](Oc3ccc(-c4ncnc(Nc5ccc(N6CCN(C7COC7)CC6)cc5)n4)cc3C#N)[C@H](F)C2)nn1 [Example 147, 2-(((3R,4S)-3-fluoro-1-(1-methyl-1H-1,2,3-triazole-4-carbonyl)piperidin-4-yl)oxy)-5-(4-((4-(4-(oxetan-3-yl)piperazin-1-yl)phenyl)amino)-1,3,5-triazin-2-yl)benzonitrile] | 184 | 3 | 1
C[C@H](O)C(=O)N1CCC(Oc2ccc(-c3ncnc(Nc4ccc(N5CCN(C6COC6)CC5)cc4)n3)cc2C#N)C(F)(F)C1 (stereo partly drawn) [Example 154, 2-((3,3-difluoro-1-((S)-2-hydroxypropanoyl)piperidin-4-yl)oxy)-5-(4-((4-(4-(oxetan-3-yl)piperazin-1-yl)phenyl)amino)-1,3,5-triazin-2-yl)benzonitrile] | 168 | 1 | 3
C[C@@H](O)C(=O)N1CCC(Oc2ccc(-c3ncnc(Nc4ccc(N5CCN(C6COC6)CC5)cc4)n3)cc2C#N)C(F)(F)C1 (stereo partly drawn) [Example 157, 2-((3,3-difluoro-1-((R)-2-hydroxypropanoyl)piperidin-4-yl)oxy)-5-(4-((4-(4-(oxetan-3-yl)piperazin-1-yl)phenyl)amino)-1,3,5-triazin-2-yl)benzonitrile] | 188 | 3 | 14
N#Cc1cc(-c2ncnc(Nc3ccc(N4CCN(C5COC5)CC4)cc3)n2)ccc1O[C@H]1CCN(C(=O)CCO)CC1(F)F [Example 161, (S)-2-((3,3-difluoro-1-(3-hydroxypropanoyl)piperidin-4-yl)oxy)-5-(4-((4-(4-(oxetan-3-yl)piperazin-1-yl)phenyl)amino)-1,3,5-triazin-2-yl)benzonitrile] | 173 | 2 | 2
N#Cc1cc(-c2ncnc(Nc3ccc(N4CCN(C5COC5)CC4)cc3)n2)ccc1OC1CCN(C(=O)c2ccc[nH]2)CC1(F)F (stereo not drawn) [Example 162, 2-((3,3-difluoro-1-(1H-pyrrole-2-carbonyl)piperidin-4-yl)oxy)-5-(4-((4-(4-(oxetan-3-yl)piperazin-1-yl)phenyl)amino)-1,3,5-triazin-2-yl)benzonitrile] | 583 | 5 | 4
